Results as given in patent publication US8747809B2, “Single diastereomers of 4-fluoroglutamine and methods of their preparation and use” (The Trustees Of The University Of Pennsylvania, priority 2009, dated 2014).

Legend:
9 L tumor cell line = assay: In vitro cell uptake studies of the four 4-[18F]F-glutamine isomers; type: cell-based, rat; conditions: 18F-labeled isomer, 37° C., 5-120 min, compared to [3H]glutamine
Method: Cell uptake of four possible isomers was evaluated using 9 L tumor cell line. The cell uptake results (% dose/100 μg protein) were compared to that of [^3H] glutamine.
(§1) Because of this observation, we decided only to further investigate the (2S,4R) isomer of [^18F]4-FGln, 1. In vitro cell uptake inhibition studies were conducted in 9 L cells in order to test the specificity of [^18F]4-FGln (2S,4R), 1. Cold L-glutamine and L-serine served as the positive control inhibitors for the glutamine transporters. L-glutamine inhibits system N transporter and L-serine inhibits the ASC transporter. Three different concentrations were tested for each inhibitor ranging from 0.5 mM to 5 mM. After 30 minutes of co-incubation of L-glutamine and [^18F] […] Cold MeAIB served as the negative control, which inhibits system A transporter.
(§2) The cellular uptake of each of the four 4-[^18F]F-glutamine isomers (2S,4R), (2S,4S), (2R,4S) and (2R,4R) were studied in (9 L) rat brain gliosarcoma cells. L-[3,4-^3H(N)]-glutamine, >97%, 250 μCi (9.25 MBq), was purchased from Perkin Elmer and was used as a control for all of the cellular uptake experiments conducted. […] All four of the 4-[^18F]F-glutamine isomers and the L-[3,4-^3H(N)]-glutamine was dissolved in PBS solution and was added to each well (500,000 cpm/mL/well) and incubated at 37° C. for 5, 30, 60, 120 min. At the end of the incubation period, the wells were aspirated and then the residual cells were washed 3 times with 1 mL ice cold PBS without Ca^2+ and Mg^2+. After washing with cold PBS, 350 μL 1M NaOH was used to lyse the cells. The lysed cells were collected onto filter paper. The filter papers were placed in scintillation vials and counting fluid was added (7 mL ecolite+) and the vials were then counted with a beta counter 18-24 h later. For dual-isotope studies using 4-[^18F]F-glutamine isomers and L-[3,4-^3H(N)]-glutamine, the vials were counted first using a gamma counter to obtain ^18F counts. The beta counts were then obtained one day later after the ^18F was fully decayed. 100 μL of the cell lysate was used for the determination of the protein concentration by Lowry method.

9 L cells = assay: In vitro inhibition studies of 4-[18F]F-glutamine (2S,4R) uptake; type: cell-based, rat; conditions: 30 min, 37° C.
Method: as §1, §2
To test the specificity of the 4-[^18F]F-glutamine (2S,4R) isomer, inhibition studies were conducted using 9 L cells. The tracer was incubated at 37° C. for 30 min. The cells were processed as previously described as above. Cold L-glutamine and L-Serine served as the positive control inhibitors for the glutamine transporters. L-glutamine inhibits system N transporter and L-Serine inhibits the ASC transporter. Cold MeAIB served as the negative control, which inhibits system A transporter. Three different concentrations were tested for each inhibitor ranging from 0.5 mM to 5 mM.

[1] = test system: M/tomND spontaneous human mammary tumors; assay: Dynamic small animal PET (A-PET) imaging; type: in vivo, mice; conditions: ~300 μCi via lateral tail vein, 120 minutes imaging, myc gene up-regulated
Method: Dynamic small animal PET (A-PET) imaging studies were conducted with 4-[^18F]F-glutamine (2S,4R) isomer. All scans were performed on a dedicated animal PET scanner (Mosaic by Phillips) (Surti, 2005). Transgenic mice bearing M/tomND spontaneous human mammary tumors were used in this study. There are many advantages to using this transgenic mouse model. A doxycycline sensitive promoter genetically engineers these mice to express the myc gene. These tumors spontaneously arise vs. traditional xenograph tumors. […] When doxycycline is removed, the myc gene is down regulated. This model was chosen because these compounds will allow a direct correlation between true glutamine uptake and the level of myc gene expression.
Glutamine uptake within the M/tomND tumor was examined by injecting ˜300 μCi of the [^18F]-4F-glutamine (2S,4R) isomer via the lateral tail vein. Imaging commenced immediately after the injection of the tracer and continued for a time period of 120 minutes.

[2] = In vivo biodistribution study in normal mice; conditions: for % Dose/Gram, Blood / % Dose/Gram, Bone / % Dose/Gram, Brain / % Dose/Gram, Heart / % Dose/Gram, Kidney / % Dose/Gram, Liver / % Dose/Gram, Lung / % Dose/Gram, Muscle / % Dose/Gram, Pancreas / % Dose/Gram, Skin / % Dose/Gram, Spleen: normal ICR mice, n = 5
Method: To test the [^18F]-4F-glutamine isomers as a novel tumor PET imaging agents, we tested the [^18F]-4F-glutamine (2S,4R) (1) in normal ICR mice weighing 20-25 grams. 5 mice per group were used for the biodistrubution study. The mice were put under anesthesia with the use of isoflurane and 0.15 mL saline solution containing 25 μCi of each isomer was injected via the lateral tail vein. The mice were sacrificed at 2, 30, 60, 120 and 240 minutes post-injection by cardiac excision while under isoflurane anesthesia. The organs of interest were removed, weighed and the radioactivity was counted with a gamma counter (Packard Cobra). The percent dose per gram was calculated by a comparison of the tissue activity counts to counts of 1.0% of the initial dose. The initial dose consists of 100 times diluted aliquots of the injected material measured at the same rate.

NC(=O)[C@H]([18F])C[C@H](N)C(=O)O [Compound 1, (2S,4R)-2,5-Diamino-4-fluoro-5-oxopentanoic acid]
cell uptake in 9 L cells (in words) (9 L tumor cell line): highest uptake | uptake of [18F]4-FGln (2S,4R) without inhibitor (control) (9 L cells): 3.56 % dose/100 ug protein | tumor uptake in PET images (in words) [1]: taken up in the tumor sites | % Dose/Gram, Blood ([2]; 2 min post-injection, iv): 6.19 ± 0.83 % Dose/Gram | % Dose/Gram, Blood ([2]; 30 min post-injection, iv): 2.72 ± 0.17 % Dose/Gram | % Dose/Gram, Blood ([2]; 60 min post-injection, iv): 2.05 ± 0.16 % Dose/Gram | % Dose/Gram, Blood ([2]; 120 min post-injection, iv): 0.83 ± 0.12 % Dose/Gram | % Dose/Gram, Blood ([2]; 240 min post-injection, iv): 0.48 ± 0.06 % Dose/Gram | % Dose/Gram, Bone ([2]; 2 min post-injection, iv): 3.93 ± 0.37 % Dose/Gram | % Dose/Gram, Bone ([2]; 30 min post-injection, iv): 5.64 ± 0.69 % Dose/Gram | % Dose/Gram, Bone ([2]; 60 min post-injection, iv): 7.93 ± 1.02 % Dose/Gram | % Dose/Gram, Bone ([2]; 120 min post-injection, iv): 14.4 ± 1.31 % Dose/Gram | % Dose/Gram, Bone ([2]; 240 min post-injection, iv): 19.4 ± 0.50 % Dose/Gram | % Dose/Gram, Brain ([2]; 2 min post-injection, iv): 0.54 ± 0.05 % Dose/Gram | % Dose/Gram, Brain ([2]; 30 min post-injection, iv): 0.51 ± 0.05 % Dose/Gram | % Dose/Gram, Brain ([2]; 60 min post-injection, iv): 0.53 ± 0.07 % Dose/Gram | % Dose/Gram, Brain ([2]; 120 min post-injection, iv): 0.57 ± 0.05 % Dose/Gram | % Dose/Gram, Brain ([2]; 240 min post-injection, iv): 0.45 ± 0.06 % Dose/Gram | % Dose/Gram, Heart ([2]; 2 min post-injection, iv): 4.31 ± 0.32 % Dose/Gram | % Dose/Gram, Heart ([2]; 30 min post-injection, iv): 3.16 ± 0.25 % Dose/Gram | % Dose/Gram, Heart ([2]; 60 min post-injection, iv): 2.86 ± 0.47 % Dose/Gram | % Dose/Gram, Heart ([2]; 120 min post-injection, iv): 1.86 ± 0.24 % Dose/Gram | % Dose/Gram, Heart ([2]; 240 min post-injection, iv): 1.24 ± 0.19 % Dose/Gram | % Dose/Gram, Kidney ([2]; 2 min post-injection, iv): 16.1 ± 1.03 % Dose/Gram | % Dose/Gram, Kidney ([2]; 30 min post-injection, iv): 9.93 ± 0.52 % Dose/Gram | % Dose/Gram, Kidney ([2]; 60 min post-injection, iv): 7.60 ± 0.84 % Dose/Gram | % Dose/Gram, Kidney ([2]; 120 min post-injection, iv): 2.15 ± 0.34 % Dose/Gram | % Dose/Gram, Kidney ([2]; 240 min post-injection, iv): 1.25 ± 0.21 % Dose/Gram | % Dose/Gram, Liver ([2]; 2 min post-injection, iv): 6.92 ± 0.92 % Dose/Gram | % Dose/Gram, Liver ([2]; 30 min post-injection, iv): 6.23 ± 0.50 % Dose/Gram | % Dose/Gram, Liver ([2]; 60 min post-injection, iv): 5.70 ± 0.62 % Dose/Gram | % Dose/Gram, Liver ([2]; 120 min post-injection, iv): 2.46 ± 0.26 % Dose/Gram | % Dose/Gram, Liver ([2]; 240 min post-injection, iv): 1.30 ± 0.18 % Dose/Gram | % Dose/Gram, Lung ([2]; 2 min post-injection, iv): 7.15 ± 0.76 % Dose/Gram | % Dose/Gram, Lung ([2]; 30 min post-injection, iv): 5.36 ± 0.49 % Dose/Gram | % Dose/Gram, Lung ([2]; 60 min post-injection, iv): 4.37 ± 0.28 % Dose/Gram | % Dose/Gram, Lung ([2]; 120 min post-injection, iv): 1.69 ± 0.10 % Dose/Gram | % Dose/Gram, Lung ([2]; 240 min post-injection, iv): 1.03 ± 0.15 % Dose/Gram | % Dose/Gram, Muscle ([2]; 2 min post-injection, iv): 1.62 ± 0.10 % Dose/Gram | % Dose/Gram, Muscle ([2]; 30 min post-injection, iv): 2.48 ± 0.16 % Dose/Gram | % Dose/Gram, Muscle ([2]; 60 min post-injection, iv): 2.86 ± 0.34 % Dose/Gram | % Dose/Gram, Muscle ([2]; 120 min post-injection, iv): 1.81 ± 0.26 % Dose/Gram | % Dose/Gram, Muscle ([2]; 240 min post-injection, iv): 0.94 ± 0.15 % Dose/Gram | % Dose/Gram, Pancreas ([2]; 2 min post-injection, iv): 17.2 ± 1.00 % Dose/Gram | % Dose/Gram, Pancreas ([2]; 30 min post-injection, iv): 19.7 ± 2.16 % Dose/Gram | % Dose/Gram, Pancreas ([2]; 60 min post-injection, iv): 17.5 ± 2.28 % Dose/Gram | % Dose/Gram, Pancreas ([2]; 120 min post-injection, iv): 9.57 ± 1.22 % Dose/Gram | % Dose/Gram, Pancreas ([2]; 240 min post-injection, iv): 5.92 ± 0.87 % Dose/Gram | % Dose/Gram, Skin ([2]; 2 min post-injection, iv): 2.72 ± 0.05 % Dose/Gram | % Dose/Gram, Skin ([2]; 30 min post-injection, iv): 4.01 ± 0.24 % Dose/Gram | % Dose/Gram, Skin ([2]; 60 min post-injection, iv): 2.94 ± 0.68 % Dose/Gram | % Dose/Gram, Skin ([2]; 120 min post-injection, iv): 2.17 ± 0.16 % Dose/Gram | % Dose/Gram, Skin ([2]; 240 min post-injection, iv): 1.25 ± 0.13 % Dose/Gram | % Dose/Gram, Spleen ([2]; 2 min post-injection, iv): 7.51 ± 0.44 % Dose/Gram | % Dose/Gram, Spleen ([2]; 30 min post-injection, iv): 5.39 ± 0.72 % Dose/Gram | % Dose/Gram, Spleen ([2]; 60 min post-injection, iv): 4.22 ± 0.38 % Dose/Gram | % Dose/Gram, Spleen ([2]; 120 min post-injection, iv): 2.02 ± 0.16 % Dose/Gram | % Dose/Gram, Spleen ([2]; 240 min post-injection, iv): 1.15 ± 0.14 % Dose/Gram | pancreas to liver ratio ([2]; after 30 min, normal mice, iv): 4 to 1 | in vivo de-fluorination (in words) ([2]; inferred from increasing bone uptake at later time points): likely that there was in vivo de-fluorination
